Source: PubChem BioAssay (NCI)
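Test compounds were applied to cells in 96-well plates for 48 hours at 5 doses. GI50 marks 50% less growth. TGI marks complete inhibition of growth.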

Key:
Experiment in all cases: growth of human tumour cells (NCI), 48 h
[1] = test system: SF-295 CNS
[2] = test system: SK-MEL-5 melanoma
[3] = test system: BT-549 breast
[4] = test system: UACC-62 melanoma
[5] = test system: SF-539 CNS
[6] = test system: MCF7 breast
[7] = test system: MDA-MB-231 breast
[8] = test system: HCC-2998 colon
[9] = test system: SW-620 colon
[10] = test system: NCI/ADR-RES ovarian
[11] = test system: LOX IMVI melanoma
[12] = test system: MDA-MB-435
[13] = test system: UO-31 renal
[14] = test system: SF-268 CNS
[15] = test system: SNB-19 CNS
[16] = test system: CAKI-1 renal
[17] = test system: HCT-116 colon
[18] = test system: HCT-15 colon
[19] = test system: RXF 393 renal
[20] = test system: RPMI-8226 leukemia
[21] = test system: A498 renal
[22] = test system: TK-10 renal
[23] = test system: SR leukemia
[24] = test system: NCI-H460 lung
[25] = test system: OVCAR-5 ovarian
[26] = test system: SK-OV-3 ovarian
[27] = test system: ACHN renal
[28] = test system: KM12 colon
[29] = test system: NCI-H226 lung
[30] = test system: EKVX NSCLC
[31] = test system: 786-0 renal
[32] = test system: UACC-257 melanoma
[33] = test system: U251 CNS
[34] = test system: SN12C renal
[35] = test system: SK-MEL-2 melanoma
[36] = test system: CCRF-CEM leukemia
[37] = test system: NCI-H23 lung
[38] = test system: IGROV1 ovarian
[39] = test system: HS 578T breast
[40] = test system: PC-3 prostate
[41] = test system: K-562 leukemia
[42] = test system: NCI-H522 lung
[43] = test system: T-47D breast
[44] = test system: OVCAR-8 ovarian
[45] = test system: COLO 205 colon
[46] = test system: M14 melanoma
[47] = test system: A549 NSCLC
[48] = test system: MOLT-4 leukemia
[49] = test system: OVCAR-3 ovarian
[50] = test system: OVCAR-4 ovarian
[51] = test system: DU-145 prostate
[52] = test system: SNB-75 CNS
[53] = test system: HT29 colon
[54] = test system: HOP-92 NSCLC
[55] = test system: SK-MEL-28 melanoma
[56] = test system: HOP-62 NSCLC
[57] = test system: MALME-3M melanoma

In the case of `COc1cc2c(/C=N\N=C(N)N)c(Cl)[nH]c2cc1C`, the GI50 [1] is reported as 8.28 µM, the TGI [1] is reported as 23.1 µM and the GI50 [2] is reported as 5.08 µM. The TGI [2] was 19 µM, the GI50 [3] was 13.2 µM and the TGI [3] was 27.8 µM. For the same molecule, the GI50 [4] was 12 µM, the TGI [4] was 24.6 µM and the GI50 [5] was 10.2 µM. It also gave a TGI [5] of 25 µM, a GI50 [6] of 6.47 µM and a TGI [6] of 27.5 µM. It also gave a GI50 [7] of 6.4 µM, a TGI [7] of 20.8 µM and a GI50 [8] of 2.5 µM. The TGI [8] was 5.67 µM, the GI50 [9] was 14.7 µM and the TGI [9] was 30.7 µM. It also gave a GI50 [10] of 23.3 µM, a TGI [10] of 50.5 µM and a GI50 [11] of 11.4 µM. It also gave a TGI [11] of 25.3 µM, a GI50 [12] of 12.2 µM and a TGI [12] of 26.2 µM. For the same molecule, the GI50 [13] was 27.5 µM, the TGI [13] was 84.6 µM and the GI50 [14] was 15.2 µM. It also gave a TGI [14] of 40.7 µM, a GI50 [15] of 12.7 µM and a TGI [15] of 29.2 µM. It also gave a GI50 [16] of 17 µM, a TGI [16] of 32.7 µM and a GI50 [17] of 10.2 µM. It also gave a TGI [17] of 21.9 µM, a GI50 [18] of 18 µM and a TGI [18] of 34.1 µM. It also gave a GI50 [19] of 14.8 µM, a TGI [19] of 30.1 µM and a GI50 [20] of 10.5 µM. It also gave a TGI [20] of 25 µM, a GI50 [21] of 19.9 µM and a TGI [21] of 35 µM. The GI50 [22] was 15.7 µM, the TGI [22] was 29.5 µM and the GI50 [23] was 3.34 µM. The TGI [23] was 8.22 µM, the GI50 [24] was 15 µM and the TGI [24] was greater than 100 µM. The GI50 [25] was 15.2 µM, the TGI [25] was 29 µM and the GI50 [26] was 9.03 µM. For the same molecule, the TGI [26] was 24.1 µM, the GI50 [27] was 11.1 µM and the TGI [27] was 23.6 µM. The GI50 [28] was 7.17 µM, the TGI [28] was 22.6 µM and the GI50 [29] was 10.5 µM. It also gave a TGI [29] of 26.3 µM, a GI50 [30] of 16.9 µM and a TGI [30] of 34.5 µM. The GI50 [31] was 14.4 µM, the TGI [31] was 28.3 µM and the GI50 [32] was 16.5 µM. For the same molecule, the TGI [32] was 32.5 µM, the GI50 [33] was 4.62 µM and the TGI [33] was 17.7 µM. For the same molecule, the GI50 [34] was 1.65 µM, the TGI [34] was 11.5 µM and the GI50 [35] was 34.5 µM. It also gave a TGI [35] greater than 100 µM, a GI50 [36] of 3.89 µM and a TGI [36] of 17.5 µM. For the same molecule, the GI50 [37] was 14.1 µM, the TGI [37] was 28 µM and the GI50 [38] was 17.5 µM. The TGI [38] was 49.9 µM, the GI50 [39] was 10.8 µM and the TGI [39] was 32.6 µM. It also gave a GI50 [40] of 6.54 µM, a TGI [40] of 19.5 µM and a GI50 [41] of 4.36 µM. For the same molecule, the TGI [41] was 19.7 µM, the GI50 [42] was 21.4 µM and the TGI [42] was greater than 100 µM. It also gave a GI50 [43] of 2.96 µM, a TGI [43] of 9.12 µM and a GI50 [44] of 15.4 µM. It also gave a TGI [44] of 38.6 µM, a GI50 [45] of 2.67 µM and a TGI [45] of 8.82 µM. For the same molecule, the GI50 [46] was 12.5 µM, the TGI [46] was 25.2 µM and the GI50 [47] was 18.6 µM. The TGI [47] was 37.3 µM, the GI50 [48] was 2.82 µM and the TGI [48] was 7.41 µM. For the same molecule, the GI50 [49] was 5.49 µM and the TGI [49] was 20.6 µM.

Work on `COc1cc(/C(Cl)=C/C=C/C(=O)c2c(C)[n+]([O-])c3ccc(Cl)cc3[n+]2[O-])cc(OC)c1OC` yielded a GI50 [1] of 2.77 µM, a TGI [1] of 20.5 µM and a GI50 [2] of 9.44 µM. The TGI [2] was greater than 50 µM, the GI50 [3] was 6.47 µM and the TGI [3] was 39.4 µM. It also gave a GI50 [4] of 3.42 µM, a TGI [4] of 27.1 µM and a GI50 [50] of 5.07 µM. For the same molecule, the TGI [50] was greater than 50 µM, the GI50 [5] was 3.67 µM and the TGI [5] was greater than 50 µM. For the same molecule, the GI50 [6] was 1.76 µM, the TGI [6] was greater than 50 µM and the GI50 [7] was 6.94 µM. It also gave a TGI [7] of 17.8 µM, a GI50 [8] of 16.7 µM and a TGI [8] greater than 50 µM. The GI50 [9] was 2.24 µM, the TGI [9] was 9.78 µM and the GI50 [51] was 11.8 µM. For the same molecule, the TGI [51] was greater than 50 µM, the GI50 [10] was 1.97 µM and the TGI [10] was greater than 50 µM. It also gave a GI50 [11] of 1.77 µM, a TGI [11] of 7.54 µM and a GI50 [12] of 0.673 µM. The TGI [12] was 1.74 µM, the GI50 [13] was 2.63 µM and the TGI [13] was 18.7 µM. For the same molecule, the GI50 [14] was 5.54 µM, the TGI [14] was 14.2 µM and the GI50 [15] was 15 µM. For the same molecule, the TGI [15] was greater than 50 µM, the GI50 [16] was 1.66 µM and the TGI [16] was 10.6 µM. The GI50 [17] was 2.12 µM, the TGI [17] was 8.98 µM and the GI50 [18] was 7.35 µM. For the same molecule, the TGI [18] was greater than 50 µM, the GI50 [19] was 9.15 µM and the TGI [19] was 28 µM. For the same molecule, the GI50 [20] was 2.18 µM, the TGI [20] was greater than 50 µM and the GI50 [21] was 15.7 µM. The TGI [21] was greater than 50 µM, the GI50 [23] was 1.47 µM and the TGI [23] was 4.72 µM. The GI50 [24] was 11.5 µM, the TGI [24] was greater than 50 µM and the GI50 [25] was 13 µM. The TGI [25] was 33.2 µM, the GI50 [26] was 7.4 µM and the TGI [26] was 31.5 µM. It also gave a GI50 [52] of 4.06 µM, a TGI [52] of 19.6 µM and a GI50 [27] of 5.15 µM. The TGI [27] was 11.6 µM, the GI50 [53] was 2.07 µM and the TGI [53] was 9.1 µM. It also gave a GI50 [28] of 5.07 µM, a TGI [28] greater than 50 µM and a GI50 [54] of 4.7 µM. The TGI [54] was 28.1 µM, the GI50 [29] was 13.3 µM and the TGI [29] was greater than 50 µM. It also gave a GI50 [30] of 14.2 µM, a TGI [30] greater than 50 µM and a GI50 [31] of 4.62 µM. For the same molecule, the TGI [31] was greater than 50 µM, the GI50 [32] was 16.6 µM and the TGI [32] was greater than 50 µM. The GI50 [55] was 6.85 µM, the TGI [55] was 49.4 µM and the GI50 [33] was 2.57 µM. The TGI [33] was 10.5 µM, the GI50 [34] was 9.1 µM and the TGI [34] was greater than 50 µM. It also gave a GI50 [56] of 7.68 µM, a TGI [56] of 24.4 µM and a GI50 [36] of 1.62 µM. It also gave a TGI [36] greater than 50 µM, a GI50 [37] of 9.36 µM and a TGI [37] of 44.6 µM. The GI50 [57] was 6.35 µM, the TGI [57] was 18.5 µM and the GI50 [38] was 3.78 µM. It also gave a TGI [38] of 13.2 µM, a GI50 [39] of 6.47 µM and a TGI [39] of 35.7 µM. For the same molecule, the GI50 [40] was 3.58 µM, the TGI [40] was greater than 50 µM and the GI50 [41] was 1.43 µM. It also gave a TGI [41] of 6.24 µM, a GI50 [42] of 1.38 µM and a TGI [42] of 4.23 µM. For the same molecule, the GI50 [43] was 10.7 µM, the TGI [43] was greater than 50 µM and the GI50 [44] was 3.09 µM. For the same molecule, the TGI [44] was greater than 50 µM, the GI50 [45] was 10 µM and the TGI [45] was 28.2 µM. The GI50 [46] was 3.68 µM, the TGI [46] was 40.4 µM and the GI50 [48] was 1.35 µM. The TGI [48] was 3.56 µM, the GI50 [49] was 2.39 µM and the TGI [49] was 10 µM.
